This note sets out measurements from publication PMC5394417, “Investigating the molecular mechanism of positive and negative allosteric modulators in the calcium-sensing receptor dimer” (Scientific Reports, 2017).

Holding throughout (type): cell-based
For one assay, the target named is T1, HA-E837A CaSR mutant (Rattus norvegicus, UniProt P48442, E837A).
T1 construct: mGluR5 signal peptide (N); expressed in transfected cells; host or cells: HEK293T
T1 sequence (P48442 20-1079 E837A): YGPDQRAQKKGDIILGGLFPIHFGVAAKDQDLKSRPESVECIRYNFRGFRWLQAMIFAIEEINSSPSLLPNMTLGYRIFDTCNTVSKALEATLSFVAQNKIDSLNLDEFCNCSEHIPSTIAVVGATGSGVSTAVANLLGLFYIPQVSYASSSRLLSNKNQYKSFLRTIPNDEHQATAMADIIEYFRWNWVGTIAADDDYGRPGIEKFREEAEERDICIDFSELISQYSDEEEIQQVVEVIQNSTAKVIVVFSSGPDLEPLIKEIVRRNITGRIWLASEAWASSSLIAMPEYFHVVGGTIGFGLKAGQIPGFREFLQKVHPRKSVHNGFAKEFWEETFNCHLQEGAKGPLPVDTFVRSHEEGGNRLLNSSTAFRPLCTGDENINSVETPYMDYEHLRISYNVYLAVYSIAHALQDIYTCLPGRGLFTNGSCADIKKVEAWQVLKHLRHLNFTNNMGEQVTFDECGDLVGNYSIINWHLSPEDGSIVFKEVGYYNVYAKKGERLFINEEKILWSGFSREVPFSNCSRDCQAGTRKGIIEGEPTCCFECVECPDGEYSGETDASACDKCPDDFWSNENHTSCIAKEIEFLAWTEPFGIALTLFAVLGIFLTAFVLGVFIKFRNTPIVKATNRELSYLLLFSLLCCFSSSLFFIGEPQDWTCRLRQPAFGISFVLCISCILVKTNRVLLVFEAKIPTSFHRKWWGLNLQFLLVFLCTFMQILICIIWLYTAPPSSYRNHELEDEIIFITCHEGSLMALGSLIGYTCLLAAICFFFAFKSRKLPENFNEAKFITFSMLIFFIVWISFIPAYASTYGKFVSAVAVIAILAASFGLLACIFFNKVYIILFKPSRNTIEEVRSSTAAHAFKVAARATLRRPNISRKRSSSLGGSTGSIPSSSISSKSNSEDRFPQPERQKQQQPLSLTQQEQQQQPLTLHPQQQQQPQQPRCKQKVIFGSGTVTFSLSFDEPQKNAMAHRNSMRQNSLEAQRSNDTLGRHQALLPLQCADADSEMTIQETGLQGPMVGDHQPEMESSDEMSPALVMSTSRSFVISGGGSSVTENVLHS
Description: IP-One assay, HEK293T transiently transfected. The settings on record: for EC50 / pEC50 ± S.E.M. / Max ± S.E.M.: HA-E837A; for effect on the Ca^2+-induced response: E837A mutant. As to the method:
(§1) Human embryonic kidney (HEK) 293T cells were cultured in DMEM supplemented with 10% dFBS and 1% P/S at 37 °C and 5% CO2. 48 h prior to assay, transient transfection was performed using Lipofectamine 2000 as the transfection reagent. White opaque 96-well culture plates (PerkinElmer, Waltham, MA, USA) were used for the ELISA and the TR-FRET dimerization assay, while clear tissue culture treated 96-well plates (Corning, Corning, NY, USA) were used for the IP-One assay. Both plate types were coated with poly-D-lysine before addition of cells and transfection mix. 0.25 μl/well of Lipofectamine 2000 were diluted in 25 μl/well of Opti-MEM and incubated at room temperature (RT) for 5 min. 0.03 μg/well of DNA was diluted in 25 μl/well of Opti-MEM, and subsequently mixed with the Lipofectamine 2000 dilution and incubated 20 min at RT before addition to the plates. Cell suspensions of 170.000 HEK293T cells/mL were prepared in complete growth medium and 100 μl/well (17.000 cells/well) was added to the plates, which were incubated for 48 h at 37 °C and 5% CO2 before performing assays.
(§2) Functional activity was measured using the IP-One assay, which is an IP1 accumulation assay. For agonist testing, ligands were prepared in final concentrations in ligand buffer (HBSS, 20 mM HEPES, pH 7.4 supplemented with 20 mM LiCl). Cells were washed once with 100 μl/well of assay buffer (HBSS, 20 mM HEPES, pH 7.4) and 50 μl/well of agonist solution was added after which plates were incubated at 37 °C for 30 min. Subsequently, ligand solutions were removed and cells were washed with 100 μl/well of assay buffer. Cell lysis was performed by addition of 30 μl/well of IP-One Conjugate & Lysis Buffer (Cisbio Bioassays, Codolet, France) and plates were incubated at RT for 30 min. Afterwards, 30 μl/well of assay buffer was added to dilute the cell lysate. 10 μl/well of cell lysate was transferred from the 96-well plate to a 384-well Optiplate and 10 μl/well of detection solution (Assay buffer + 2.5% of anti-IP1 antibody cryptate Terbium conjugate + 2.5% IP1-d2 conjugate (Cisbio Bioassays, Codolet, France)) was also added. The 384-well plate was incubated for 1 h at RT in dark before being measured on an EnVision plate reader (PerkinElmer, Waltham, MA, USA). Upon excitation at 340 nm, emission at 615 nm and 665 nm was measured, and the FRET ratio (665 nm/615 nm) was converted to IP1 concentrations by interpolating values from an IP1 standard curve generated from a provided IP1 calibrator (Cisbio Bioassays, Codolet, France). When testing allosteric modulators, cells were pre-incubated for 30 min at 37 °C with 50 μl/well of ligand buffer supplemented with allosteric modulator and a final concentration of 1% DMSO. Afterwards, the buffer solution was removed and 50 μl/well of agonist solution in ligand buffer supplemented with allosteric modulator and a final concentration of 1% DMSO was added. Plates were incubated for 30 min at 37 °C followed by one wash in 100 μl/well of assay buffer. Cell lysis and detection was performed as described above.

The target of assay [1] is T2, S170A/E837A:F801A/E837A heterodimer (Rattus norvegicus, UniProt P48442, E837A/F801A/S170A).
T2 construct: mGluR5 signal peptide (N); expressed in transfected cells; host or cells: HEK293T
T2 sequence (P48442 20-1079 S170A/E837A): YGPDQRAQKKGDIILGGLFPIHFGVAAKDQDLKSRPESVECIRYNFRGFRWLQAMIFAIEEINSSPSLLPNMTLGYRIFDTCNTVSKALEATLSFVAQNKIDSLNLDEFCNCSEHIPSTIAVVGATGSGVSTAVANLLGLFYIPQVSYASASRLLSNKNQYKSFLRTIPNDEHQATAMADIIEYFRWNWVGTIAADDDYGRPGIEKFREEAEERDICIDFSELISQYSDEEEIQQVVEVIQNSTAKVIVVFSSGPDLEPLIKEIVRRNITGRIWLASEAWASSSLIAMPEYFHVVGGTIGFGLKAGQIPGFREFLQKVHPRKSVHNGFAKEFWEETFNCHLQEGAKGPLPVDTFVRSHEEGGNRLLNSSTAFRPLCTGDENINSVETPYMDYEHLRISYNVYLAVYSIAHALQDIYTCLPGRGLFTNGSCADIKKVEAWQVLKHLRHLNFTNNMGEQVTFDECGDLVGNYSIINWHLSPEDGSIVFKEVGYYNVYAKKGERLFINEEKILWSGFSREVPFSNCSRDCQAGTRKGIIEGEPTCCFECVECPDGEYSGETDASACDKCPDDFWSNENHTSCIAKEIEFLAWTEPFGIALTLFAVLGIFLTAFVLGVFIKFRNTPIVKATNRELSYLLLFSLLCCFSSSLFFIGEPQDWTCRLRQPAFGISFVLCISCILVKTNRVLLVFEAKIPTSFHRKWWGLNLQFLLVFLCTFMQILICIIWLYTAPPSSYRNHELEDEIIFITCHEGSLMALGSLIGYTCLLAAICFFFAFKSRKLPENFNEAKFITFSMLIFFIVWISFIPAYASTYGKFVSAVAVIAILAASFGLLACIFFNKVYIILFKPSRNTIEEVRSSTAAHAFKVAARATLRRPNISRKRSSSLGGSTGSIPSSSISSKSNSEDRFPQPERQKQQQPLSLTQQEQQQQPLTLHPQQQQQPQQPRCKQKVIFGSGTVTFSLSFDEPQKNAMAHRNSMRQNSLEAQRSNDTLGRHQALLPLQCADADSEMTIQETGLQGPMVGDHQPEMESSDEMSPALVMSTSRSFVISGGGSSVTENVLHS
T2 sequence (P48442 20-1079 F801A/E837A): as the sequence (P48442 20-1079 S170A/E837A) above, with A151S, F782A counted along it
Description: IP-One trans-activation assay, co-expression 1:1 in HEK293T. As to the method: as §1, §2

The target of assay [2] is T3, S170A:F801A/E837A heterodimer (Rattus norvegicus, UniProt P48442, E837A/F801A/S170A).
T3 construct: mGluR5 signal peptide (N); expressed in transfected cells; host or cells: HEK293T
T3 sequence (P48442 20-1079 S170A): as the sequence (P48442 20-1079 S170A/E837A) above, with A818E counted along it
T3 sequence (P48442 20-1079 F801A/E837A): as the sequence (P48442 20-1079 S170A/E837A) above, with A151S, F782A counted along it
The description is as above. The protocol: as §1, §2

As to `[Ca+2]` [Ca^2+], the EC50 (usually the concentration giving half of the maximal effect) turned out to be 3.4 mM on HA-E837A CaSR mutant (Ca^2+ alone), 3.88 mM on HA-E837A CaSR mutant (Ca^2+ with 1 μM NPS R-568) and 3.46 mM at HA-E837A CaSR mutant (Ca^2+ with 5 μM NPS 2143). The “pEC50 ± S.E.M.” value at HA-E837A CaSR mutant (Ca^2+ alone) is 2.47 ± 0.01; on HA-E837A CaSR mutant (Ca^2+ with 1 μM NPS R-568), 2.41 ± 0.04; on HA-E837A CaSR mutant (Ca^2+ with 5 μM NPS 2143) it was 2.46 ± 0.02. The “Max ± S.E.M.” value on HA-E837A CaSR mutant (Ca^2+ alone, normalized to maximum response of WT CaSR) amounted to 87 ± 16%; on HA-E837A CaSR mutant (Ca^2+ with 1 μM NPS R-568, normalized to maximum response with Ca^2+ alone for the construct) it was 100 ± 5%; at HA-E837A CaSR mutant (Ca^2+ with 5 μM NPS 2143, normalized to maximum response with Ca^2+ alone for the construct), 91 ± 5.7%.

For the compound `CC(C)(Cc1ccc2ccccc2c1)NC[C@@H](O)COc1cccc(Cl)c1C#N.Cl` [NPS 2143, NPS 2143 hydrochloride], at HA-E837A CaSR mutant (5 μM NPS 2143), the “effect on the Ca^2+-induced response” value is reported as “neither NPS R-568 nor NPS 2143 had any significant effect”. Moreover, the “inhibition of Ca^2+-mediated response” value is “not subjected to inhibition” in assay [1] (S170A/E837A:F801A/E837A heterodimer, 0.2, 1 and 5 μM NPS 2143); “full inhibition” in assay [2] (S170A:F801A/E837A heterodimer, 5 μM NPS 2143).

On to `COc1cccc([C@@H](C)NCCCc2ccccc2Cl)c1.Cl` [NPS R-568, NPS R-568 hydrochloride], for which, at HA-E837A CaSR mutant (1 μM NPS R-568), the “effect on the Ca^2+-induced response” value is “neither NPS R-568 nor NPS 2143 had any significant effect”. Besides, the “potentiation of Ca^2+-mediated response” value was “not potentiated” in assay [1] (S170A/E837A:F801A/E837A heterodimer, 0.05, 0.1 and 1 μM NPS R-568); “potentiated” in assay [2] (S170A:F801A/E837A heterodimer, 0.05, 0.1 and 1 μM NPS R-568).
